Assay results: PMC2248166, “Quantitative peptide binding motifs for 19 human and mouse MHC class I molecules derived using positional scanning combinatorial peptide libraries” (Immunome Research, 2008)

Experiments:
HLA B*5401 = HLA B*5401 (Homo sapiens, UniProt P01889, A329T/C349S/D138N/D201E/E176V/E187T/E204Q/E69G/I76V/K202T/L119W/R155S/R180L/S121T/S35A/S48A/V127L/V306I/V36M/Y140L); format: binding
HLA B*5301 = HLA B*5301 (Homo sapiens, UniProt P01889, A329T/A93T/A95T/C349S/D201E/D98Y/E176V/E187L/E204Q/E69T/G107R/I218V/K202T/L105A/L119I/N104I/Q94N/R106L/R155S/R180L/S101N/S121R/S35A/S48A/T118I/V127L/V306I/V36M/Y140S/Y91F); format: binding
HLA B*3501 = HLA B*3501 (Homo sapiens, UniProt P01889, A329T/A93T/A95T/C349S/D201E/D98Y/E176V/E187L/E204Q/E69T/I218V/K202T/L119I/Q94N/R155S/R180L/S121R/S35A/S48A/T118I/V127L/V306I/V36M/Y140S/Y91F); format: binding
HLA B*5801 = HLA B*5801 (Homo sapiens, UniProt P01889, A329T/C349S/D201E/D98Y/E176V/E187L/E204Q/E69T/G107R/I218V/I90N/K202T/L105A/L119I/N104I/N87E/Q89R/Q94S/R106L/R155S/R180L/R86G/S101N/S121R/S35A/S48A/T118I/V127L/V306I/V36M/Y140S/Y91M); format: binding
HLA B*0702 = HLA B*0702 (Homo sapiens, UniProt P01889); format: binding; conditions: positional scanning combinatorial 9-mer library; normalized to 1.0 for the best residue at each position
H-2 K^k = H-2 K^k (Mus musculus, UniProt P04223); format: binding
H-2 K^k, sequence (P01887 21-119): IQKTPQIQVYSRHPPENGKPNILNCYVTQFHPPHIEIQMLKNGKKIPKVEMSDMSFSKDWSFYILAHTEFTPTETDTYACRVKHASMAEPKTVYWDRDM
H-2 K^k, sequence (P04223 22-369): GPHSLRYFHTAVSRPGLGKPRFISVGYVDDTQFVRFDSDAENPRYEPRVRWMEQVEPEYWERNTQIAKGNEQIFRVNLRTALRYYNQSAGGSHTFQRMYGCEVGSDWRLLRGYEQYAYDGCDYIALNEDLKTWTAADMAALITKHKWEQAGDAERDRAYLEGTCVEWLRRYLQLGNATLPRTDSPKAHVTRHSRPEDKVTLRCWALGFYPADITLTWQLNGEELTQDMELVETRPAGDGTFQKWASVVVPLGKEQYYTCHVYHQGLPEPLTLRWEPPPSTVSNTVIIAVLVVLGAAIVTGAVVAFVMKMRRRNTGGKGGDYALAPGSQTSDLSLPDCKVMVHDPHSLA

HLA B*5101 = HLA B*5101 (Homo sapiens, UniProt P01889, A329T/A93T/A95T/C349S/D138N/D201E/D98Y/E187L/E204Q/E69T/G107R/I218V/K202T/L105A/L119W/N104I/Q94N/R106L/R155S/R180L/S101N/S121T/S35A/S48A/V306I/V36M/Y195H/Y91F); format: binding
HLA A*0201 = HLA A*0201 (Homo sapiens, UniProt P04439, D140Y/D185E/D98H/E176V/E277Q/G131W/G231S/I119V/I121R/I166T/I218V/L300P/L318F/N151K/N90K/P208A/P217A/Q86G/Q94H/R138H/R169H/T345S); conditions: positional scanning combinatorial 9-mer library; normalized to 1.0 for the best residue at each position
HLA B*2705 = HLA B*2705 (Homo sapiens, UniProt P01889, D138H/D201E/E176V/E204Q/G107R/H137Y/K202T/N104T/N87E/Q56L/Q94K/R106L/R155S/R180L/S101D/S121N/S48T/Y140D/Y33H/Y91C); format: binding; conditions: positional scanning combinatorial 9-mer library; normalized to 1.0 for the best residue at each position
H-2 D^d = H-2 D^d (Mus musculus, UniProt P01900); format: binding
H-2 D^d, sequence (P01900 whole entry, looked up): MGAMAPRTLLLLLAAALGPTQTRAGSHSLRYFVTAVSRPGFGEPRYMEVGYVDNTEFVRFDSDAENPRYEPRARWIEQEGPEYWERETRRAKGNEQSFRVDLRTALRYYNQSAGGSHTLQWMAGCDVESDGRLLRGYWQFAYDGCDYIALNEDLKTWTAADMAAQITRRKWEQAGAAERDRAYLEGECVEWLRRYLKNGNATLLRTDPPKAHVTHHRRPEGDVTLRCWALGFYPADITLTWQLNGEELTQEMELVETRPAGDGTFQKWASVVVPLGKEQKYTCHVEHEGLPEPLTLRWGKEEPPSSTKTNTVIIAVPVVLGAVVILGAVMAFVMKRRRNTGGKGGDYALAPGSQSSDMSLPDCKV

HLA B*0801 = HLA B*0801 (Homo sapiens, UniProt P01889, A93T/A95T/D138N/E176V/E187T/K202T/Q94N/R180D/S35A/V36M/Y33D/Y91F); assay: biochemical; format: binding
HLA A*6802 = HLA A*6802 (Homo sapiens, UniProt P04439, A269V/D140Y/D185E/E176V/E277Q/E87N/F33Y/G231S/I121R/I166T/I218V/L180W/L300P/L318F/N151K/P208A/P217A/Q86R/R138H/R169H/S129P/T345S/V36M); format: binding
HLA B*1501 = HLA B*1501 (Homo sapiens, UniProt P01889, A329T/A93T/A95T/C349S/D201E/D98Y/E187L/E204Q/E69M/E70A/K202T/N87E/Q94N/R155S/R180W/S121R/S35A/S48A/V306I/V36M/Y140S/Y91S); assay: biochemical; format: binding
HLA A*3001 = HLA A*3001 (Homo sapiens, UniProt P04439, D140H/D185E/E176W/F33S/G80R/H175R/K168Q/R138E/R41S); assay: biochemical; format: binding
HLA B*5802 = HLA B*5802 (Homo sapiens, UniProt P01889, A329T/C349S/D201E/D98Y/E176V/E187L/E204Q/E69T/G107R/I218V/I90N/K202T/L105A/N104I/N87E/Q89R/Q94S/R106L/R155S/R180L/R86G/S101N/S121W/S35A/S48A/V127L/V306I/V36M/Y140S/Y91M); format: binding
HLA B*1503 = HLA B*1503 (Homo sapiens, UniProt P01889, A329T/A93T/A95T/C349S/D201E/D98Y/E187L/E204Q/K202T/N87E/Q94N/R155S/R180L/S121R/S35A/V306I/V36M/Y140S/Y91S); assay: biochemical; format: binding
H-2 D^b = H-2 D^b (Mus musculus, UniProt P01899); format: binding
H-2 D^b, sequence (P01887 21-119): as the sequence (P01887 21-119) above
H-2 D^b, sequence (P01899 25-362): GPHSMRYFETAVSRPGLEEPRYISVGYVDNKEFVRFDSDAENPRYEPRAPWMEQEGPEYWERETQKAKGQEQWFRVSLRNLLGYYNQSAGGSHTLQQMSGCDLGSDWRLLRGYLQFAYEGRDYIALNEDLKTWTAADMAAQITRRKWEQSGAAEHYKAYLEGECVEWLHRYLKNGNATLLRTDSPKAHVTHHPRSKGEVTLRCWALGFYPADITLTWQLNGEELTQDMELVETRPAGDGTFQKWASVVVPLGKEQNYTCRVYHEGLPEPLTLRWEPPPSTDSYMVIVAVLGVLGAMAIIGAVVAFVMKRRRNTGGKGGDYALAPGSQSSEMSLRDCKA

HLA A*3201 = HLA A*3201 (Homo sapiens, UniProt P04439, A270S/D101S/D185E/E176V/E277Q/F133L/G103R/G107R/G231S/H175R/I121M/I218V/I322F/K168Q/L105A/L300P/L318F/M331R/P208A/P217A/Q94H/R106L/R138Q/S129P/T104I/T323A/T345S/V100E/V321M/V358M); assay: biochemical; format: binding

Row | Sequence | Normalized average relative binding affinity (ARB), HLA B*5401 (HLA B*5401) | Normalized average relative binding affinity (ARB), HLA B*5301 (HLA B*5301) | Normalized average relative binding affinity (ARB), HLA B*3501 (HLA B*3501) | Normalized average relative binding affinity (ARB), HLA B*5801 (HLA B*5801) | Normalized average relative binding affinity (ARB), HLA B*0702 (HLA B*0702) | Normalized average relative binding affinity (ARB), H-2 Kk (H-2 K^k) | Normalized average relative binding affinity (ARB), HLA B*5101 (HLA B*5101) | Normalized average relative binding affinity (ARB), HLA A*0201 (HLA A*0201) | Normalized average relative binding affinity (ARB), HLA B*2705 (HLA B*2705) | Normalized average relative binding affinity (ARB), H-2 Dd (H-2 D^d) | Normalized average relative binding affinity (ARB), HLA B*0801 (HLA B*0801) | Normalized average relative binding affinity (ARB), HLA A*6802 (HLA A*6802) | Normalized average relative binding affinity (ARB), HLA B*1501 (HLA B*1501) | Normalized average relative binding affinity (ARB), HLA A*3001 (HLA A*3001) | Normalized average relative binding affinity (ARB), HLA B*5802 (HLA B*5802) | Normalized average relative binding affinity (ARB), HLA B*1503 (HLA B*1503) | Normalized average relative binding affinity (ARB), H-2 Db (H-2 D^b) | Normalized average relative binding affinity (ARB), HLA A*3201 (HLA A*3201)
1 | XYXXXXXXX [3064.0040] | 0.0039 | 0.0053 | 0.012 | 0.029 | 0.0050 | 0.0099 | 0.053 | 0.0078 | 0.0026 | 0.013 | 0.066 | 0.017 | 0.028 | 0.46 | 0.030 | 0.017 | 0.071 | 0.032
2 | YXXXXXXXX [3064.0020] | 0.12 | 0.36 | 0.19 | 0.20 | 0.25 | 0.63 | 1.0 | 0.11 | 0.85 | 0.41 | 0.24 | 0.24 | 0.33 | 0.064 | 0.46 | 0.34 | 0.57 | 0.12
